Values after ≈ are worked out from the molar mass of the structure shown. Where two headings read alike, the source gives them in different places.
What was measured:
CK98003 (Candida krusei) = assay: Anti-Candida in vitro assay, CK98003; type: cell-based; conditions: Pichia kudriavzevii; Candida krusei CK98003, mean of triplicate; read-out: MIC (IC80) CK98003
Experimental: (§1) Test fungal strains were obtained from the American Type Culture Collection (ATCC) or were clinical isolates from the Laboratory of Parasitology and Medical Mycology, Centre Hospitalier Universitaire (CHU) of Nantes. The strains were maintained on Sabouraud agar slants and were subcultured 24 h before used. The activity of the target compounds 8a–g and 11a–m was determined by the method previously described. Briefly, molecules were diluted in RPMI 1640 medium supplemented with 0.165 M morpholinopropanesulphonic acid (Sigma-Aldrich, Saint-Quentin Fallavier, France), 2% glucose, and antibiotics. Candida suspensions were prepared in RPMI 1640 medium (Sigma-Aldrich, Saint-Quentin Fallavier, France) adjusted to give a final concentration of 10^3 cells/mL, and a 96-well microplate (Nunc, D. Dutscher, Brumath, France) was seeded with 100 µL. Each concentration of molecules (100 µL) to be tested was added (in triplicate) and plates were incubated at 37 °C for 24 h. The cellular viability was evaluated on the Fluorolite 1000 (Dynatech, France) with an excitation at 550 nm and an emission at 590 nm after a 4 h incubation with 10 µL of Alamar Blue®. […] MIC was expressed as the mean of the triplicate values. KTC and FLC were used as standards.

[1] = tested on: CA98002 (Candida albicans); assay: Anti-Candida in vitro assay, CA98002; type: cell-based; conditions: Candida albicans CA98002, mean of triplicate; read-out: MIC (IC80) CA98002
Experimental: as §1

[2] = tested on: CA98005 (Candida albicans); assay: Anti-Candida in vitro assay, CA98005; type: cell-based; conditions: Candida albicans CA98005, mean of triplicate; read-out: MIC (IC80) CA98005
Experimental: as §1

MRC5 toxicity assay = type: cell-based, human; conditions: human, MRC-5 cells, 96-h incubation, mean of triplicate, read-out: Cytotoxicity IC50 on MRC-5 cells
Experimental: (§2) The cytotoxicity of compounds was studied with human fibroblast (MRC5). Cells were grown in RPMI 1640 medium (Sigma-Aldrich, Saint-Quentin Fallavier, France) supplemented with 10% fetal bovin serum (Sigma–Aldrich). Drugs were tested at three concentrations (100, 10, and 1 µM) in triplicate. After a 96-h incubation time, cytotoxicity was measured on the Fluorolite 1000 (Dynatech, Guyancourt, France) after a 4-h incubation time with Uptiblue® (Interchim, Montluçon, France). Inhibitory concentration 50 is a mean of triplicate values. A toxicity index was determined as follow: IC50 against MRC5/Geometric mean of the MICs against Candida spp..

[3] = tested on: human fetal lung fibroblast (MRC-5) cells; assay: MRC5 toxicity assay; type: cell-based; conditions: 96-h incubation, mean of triplicate, read-out: Cytotoxicity IC50 on MRC-5 cells
Experimental: as §2

[4] = tested on: ATCC6258 Candida krusei strain; assay: Anti-Candida in vitro assay, ATCC6258; type: cell-based; conditions: Pichia kudriavzevii; Candida krusei ATCC6258, mean of triplicate; read-out: MIC (IC80) ATCC6258
Experimental: as §1

[5] = tested on: ATCC2091 Candida albicans strain; assay: Anti-Candida in vitro assay, ATCC2091; type: cell-based; conditions: Candida albicans ATCC2091, mean of triplicate; read-out: MIC (IC80) ATCC2091
Experimental: as §1

[6] = tested on: CL98001 (Candida lusitaniae); assay: Anti-Candida in vitro assay, CL98001; type: cell-based; conditions: Clavispora lusitaniae; Candida lusitaniae CL98001, mean of triplicate; read-out: MIC (IC80) CL98001
Experimental: as §1

CK98002 (Candida krusei) = assay: Anti-Candida in vitro assay, CK98002; type: cell-based; conditions: Pichia kudriavzevii; Candida krusei CK98002, mean of triplicate; read-out: MIC (IC80) CK98002
Experimental: as §1

C. albicans CA98001 = assay: Anti-Candida in vitro assay (Alamar Blue), C. albicans CA98001; type: cell-based; conditions: MIC = IC80, 24 h at 37 °C, mean of triplicate; for MIC: Candida albicans, CA98001, 24 h
Experimental: as §1

aromatase (CYP19) = target: T1, aromatase (CYP19) (Homo sapiens, UniProt P11511); assay: In vitro inhibition of aromatase; type: biochemical
T1 construct: Microsomal protein (0.1 mg) was added to start the reaction; from tissue; host or cells: microsomes; ('human placental microsomes')
T1 sequence (P11511 1-503): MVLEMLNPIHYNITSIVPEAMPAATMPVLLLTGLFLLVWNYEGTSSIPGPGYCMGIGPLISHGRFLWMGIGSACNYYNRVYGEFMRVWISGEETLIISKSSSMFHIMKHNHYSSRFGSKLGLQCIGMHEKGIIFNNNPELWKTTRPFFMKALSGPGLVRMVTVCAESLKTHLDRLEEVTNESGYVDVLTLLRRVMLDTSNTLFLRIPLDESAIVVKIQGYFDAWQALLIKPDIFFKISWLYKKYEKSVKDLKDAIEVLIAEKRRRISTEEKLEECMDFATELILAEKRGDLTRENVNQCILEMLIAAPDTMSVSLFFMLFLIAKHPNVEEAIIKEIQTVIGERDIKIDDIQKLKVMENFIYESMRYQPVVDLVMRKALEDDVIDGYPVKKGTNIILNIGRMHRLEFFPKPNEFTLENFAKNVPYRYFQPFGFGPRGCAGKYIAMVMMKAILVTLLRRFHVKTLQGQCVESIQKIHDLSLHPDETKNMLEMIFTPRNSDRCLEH
Experimental: The assay was performed according to previously described methods [49, 50, 51] by monitoring the enzyme activity by measuring the ^3H2O formed from [1β-^3H]androstenedione during aromatization. […] Microsomal protein (0.1 mg) was added to start the reaction. After incubation of 15 min at 30 °C, the reaction was stopped by adding 200 µL of a cold HgCl2 solution (1 mM). After the addition of 200 µL of an aqueous dextran-coated charcoal (DCC) suspension (2%), the vials were shaken then centrifuged to separate the charcoal-absorbed steroids. Aliquots of the supernatant were assayed for ^3H2O by counting in a scintillation mixture using a LKB-Wallac β-counter.

[7] = tested on: ATCC90018 Candida parapsilosis strain; assay: Anti-Candida in vitro assay, ATCC90018; type: cell-based; conditions: Lodderomyces parapsilosis; Candida parapsilosis ATCC90018, mean of triplicate; read-out: MIC (IC80) ATCC90018
Experimental: as §1

[8] = target: T2, 17α-hydroxylase/17,20-lyase (CYP17) (Homo sapiens, UniProt P05093); assay: In vitro inhibition of 17α-hydroxylase/17,20-lyase; type: biochemical; conditions: mean of two experiments in duplicate
T2 sequence (P05093 1-508): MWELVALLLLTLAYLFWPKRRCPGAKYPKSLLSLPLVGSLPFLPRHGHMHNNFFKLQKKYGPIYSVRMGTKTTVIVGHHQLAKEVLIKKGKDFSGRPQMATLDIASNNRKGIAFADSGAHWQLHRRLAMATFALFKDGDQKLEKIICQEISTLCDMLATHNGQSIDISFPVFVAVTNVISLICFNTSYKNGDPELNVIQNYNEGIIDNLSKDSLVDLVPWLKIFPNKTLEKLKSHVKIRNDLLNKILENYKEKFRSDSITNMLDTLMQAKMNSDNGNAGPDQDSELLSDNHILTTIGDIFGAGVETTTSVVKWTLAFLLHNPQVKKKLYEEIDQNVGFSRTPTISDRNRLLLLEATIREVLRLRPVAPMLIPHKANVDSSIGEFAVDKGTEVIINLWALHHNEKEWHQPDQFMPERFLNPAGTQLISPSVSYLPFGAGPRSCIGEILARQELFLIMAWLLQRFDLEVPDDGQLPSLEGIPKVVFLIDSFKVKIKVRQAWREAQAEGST
Experimental: The assay was performed similar to described methods [29, 52]. […] Microsomal protein was added to start the reaction. […] After the addition of 1 mL EtOAc, the vials were shaken then centrifuged. The organic phase was removed, vortexed with phosphate buffer (250 µL), 1 M aqueous HCl (50 µL), and then dried. Aliquots of 25 µL methanol, containing 250 pmol of fluorocortisol acetate as internal standard, were added to the extracts. The samples (20 µL) were submitted to HPLC (RP-8 column, methanol/water 1:1, v/v) and measured using UV (240 nm).

CYP11B1 = tested on: CYP11B1; parameters: method as in PMID 7663533; conditions: cited from earlier work
CYP11B2 = tested on: CYP11B2; parameters: method as in PMID 21193036; conditions: another similar study; cited from earlier work
[9] = MRC-5 human fetal lung fibroblast cells

SMILES | MIC (CK98003 (Candida krusei)) [µg/mL] | MIC [1] [µg/mL] | MIC [2] [µg/mL] | MIC [4] [µg/mL] | MIC [5] [µg/mL] | MIC [6] [µg/mL] | melting point [°C] | MIC (CK98002 (Candida krusei)) [µg/mL] | MIC (C. albicans CA98001) [µg/mL] | inhibition at 36 µM (aromatase (CYP19); at 36 µM) [%] | IC50 (aromatase (CYP19); mean of at least two experiments in duplicate) [µM] | MIC [7] [µg/mL] | IC50 [8] [µM] | CYP17 IC50 [8] | IC50 at 96 h (MRC5 toxicity assay; [9]) [µM] | IC50 [3] [µM] | IC50 at 96 h (MRC5 toxicity assay) [µM] | CYP11B1 inhibition (CYP11B1) | CYP11B2 inhibition (CYP11B2) [%] | MIC (= IC80) C. albicans CA98001 (C. albicans CA98001) [µg/mL]
COc1ccc2c(c1)CCC(Cc1cnc[nH]1)=C2C [BW19, 4-(6-methoxy-1-methyl-3,4-dihydro-naphthalen-2-ylmethyl)-1H-imidazole, reference compound] | – | – | – | – | – | – | – | – | – | – | – | – | 0.15 | – | – | – | – | – | – | –
CC(=O)N1CCN(c2ccc(OCC3COC(Cn4ccnc4)(c4ccc(Cl)cc4Cl)O3)cc2)CC1 (stereo not drawn) [KTC, ketoconazole, reference compound] | 0.43 (≈ 0.809 µM) | 0.009 (≈ 0.0169 µM) | 0.006 (≈ 0.0113 µM) | 0.079 (≈ 0.149 µM) | 0.008 (≈ 0.0151 µM) | 0.007 (≈ 0.0132 µM) | – | 0.37 (≈ 0.696 µM) | 0.005 (≈ 0.00941 µM) | – | – | 0.064 (≈ 0.12 µM) | – | – | – | – | 69.1 | strong inhibitor | 100 | –
OC(Cn1cncn1)(Cn1cncn1)c1ccc(F)cc1F [FLC, fluconazole, reference compound] | 6.7 (≈ 21.9 µM) | 1 (≈ 3.27 µM) | 0.57 (≈ 1.86 µM) | 7.5 (≈ 24.5 µM) | 0.07 (≈ 0.229 µM) | 0.55 (≈ 1.8 µM) | – | 2 (≈ 6.53 µM) | 0.02 (≈ 0.0653 µM) | – | – | 0.6 (≈ 1.96 µM) | – | – | > 100 | – | – | minor inhibitor | – | 0.02 (≈ 0.0653 µM)

Now from value to molecule, other results behind:

MIC (CK98003 (Candida krusei)) [µg/mL] | MIC [1] [µg/mL] | MIC [2] [µg/mL] | MIC [4] [µg/mL] | MIC [5] [µg/mL] | MIC [6] [µg/mL] | melting point [°C] | MIC (CK98002 (Candida krusei)) [µg/mL] | MIC (C. albicans CA98001) [µg/mL] | inhibition at 36 µM (aromatase (CYP19); at 36 µM) [%] | IC50 (aromatase (CYP19); mean of at least two experiments in duplicate) [µM] | MIC [7] [µg/mL] | IC50 [8] [µM] | CYP17 IC50 [8] | SMILES | IC50 at 96 h (MRC5 toxicity assay; [9]) [µM] | IC50 [3] [µM] | IC50 at 96 h (MRC5 toxicity assay) [µM] | CYP11B1 inhibition (CYP11B1) | CYP11B2 inhibition (CYP11B2) [%] | MIC (= IC80) C. albicans CA98001 (C. albicans CA98001) [µg/mL]
24.1 (≈ 67.9 µM) | 0.026 (≈ 0.0734 µM) | 0.064 (≈ 0.181 µM) | 2.18 (≈ 6.15 µM) | 0.021 (≈ 0.0593 µM) | 0.021 (≈ 0.0593 µM) | 119 to 120 | 1.55 (≈ 4.37 µM) | 0.0198 (≈ 0.0559 µM) | 89 | 3.58 | 0.201 (≈ 0.567 µM) | – | – | OC(Cn1cncn1)(Cn1ccc2ccccc21)c1ccc(F)cc1F (stereo not drawn) [Compound 11d, 2-(2,4-Difluorophenyl)-3-(1H-indol-1-yl)-1-(1H-1,2,4-triazol-1-yl)-propan-2-ol] | > 100 | ~197 | – | – | – | –
> 41.5 | 1.12 (≈ 2.7 µM) | 2.99 (≈ 7.2 µM) | 25.3 (≈ 60.9 µM) | 2.74 (≈ 6.6 µM) | 2.87 (≈ 6.9 µM) | 123 to 124 | 20.2 (≈ 48.7 µM) | 1.25 (≈ 3 µM) | – | – | 9.76 (≈ 23.5 µM) | – | – | Cc1c(C)n(CC(O)(Cn2cncn2)c2ccc(Cl)cc2Cl)c2ccccc12 (stereo not drawn) [Compound 11k, 2-(2,4-Dichlorophenyl)-3-(2,3-dimethyl-1H-indol-1-yl)-1-(1H-1,2,4-triazol-1-yl)propan-2-ol] | ~97 | 97.3 | – | – | – | –
– | – | – | – | – | – | – | – | – | – | – | – | – | not active | N#Cc1ccc(C2CCCc3cncn32)cc1 (stereo not drawn) [fadrozole, reference compound] | – | – | – | – | – | –
> 35.2 | 0.165 (≈ 0.469 µM) | 0.106 (≈ 0.301 µM) | > 35.2 | 0.215 (≈ 0.611 µM) | 0.222 (≈ 0.631 µM) | 201 to 202 | 2.72 (≈ 7.74 µM) | 0.02 (≈ 0.0568 µM) | – | – | 1.3 (≈ 3.69 µM) | – | – | OC(Cn1ccnc1)(Cn1ccc2ccccc21)c1ccc(Cl)cc1 (stereo not drawn) [Compound 8b, 2-(4-Chlorophenyl)-1-(1H-imidazol-1-yl)-3-(1H-indol-1-yl)propan-2-ol] | 37 | – | – | – | – | –
